Laboratory results taken from US20250137059A1, “ACTIVATED RAS AS THERAPEUTIC AND DIAGNOSTIC TARGET FOR NEUROFIBROMATOSIS AND USE THEREOF” (THE ASAN FOUNDATION, priority 2021, published 2025).

How the values were obtained:
Type in all cases: cell-based, human
[1] = system: phosphorylated ERK (p-ERK); experiment: Electrophoresis comparison of p-ERK expression in fibroblasts upon Ataluren treatment (FIG. 4); settings: Ataluren 20 μg/ml or 30 μg/ml, electrophoresis (FIG. 4); for expression of p-ERK: fibroblasts of neurofibromatosis patients in which the activity of Ras proteins has been decreased
Protocol: (§1) The skin fibroblasts from donated normal individuals and neurofibromatosis patients were treated with Ataluren at concentrations of 20 μg/ml and 30 μg/ml and cultured, in a DMEM supplemented with 10% FBS and 1% penicillin-streptomycin. When the cells were cultured until the density reached 70% to 80% of a container, the medium was replaced with an FBS-free medium, and the cells were cultured and underwent a starvation process for 24 hours. Next, the cells were transferred to an FBS-containing medium, treated with EGF, which is a Ras activator, by dilution to a concentration of 100 ng/ml, and then allowed for a reaction at 37° C. for 5 minutes to prepare each sample. Measurement of the activity of Ras proteins in each sample was performed in the same manner as described in Example 2.
(§2) The same protein of which the Ras activity was measured in Example 3 was subjected to electrophoresis by using NuPAGETM 4-12% Bris-Tris Gel (Invitrogen).

p-ERK protein = experiment: Expression ratios of ERK and p-ERK on membrane with ERK and p-ERK antibodies (FIG. 5); settings: Ataluren 20 μg/ml or 30 μg/ml (FIG. 5)
Protocol: as §1, §2
To more accurately compare the ERK activity, the electrophoresed proteins were transferred to a hybond-ECL membrane, and the membrane was blocked with 3% skim milk. Next, ERK and p-ERK antibodies were reacted on the membrane at 4° C. for 24 hours, and then washed by using TBST three times. […] The expression ratios of ERK and p-ERK in the washed membrane were measured.

[2] = system: GTP-bound and activated RAS (Ras-GTP) protein; experiment: G-LISA Ras activation assay in skin fibroblasts after EGF stimulation upon Ataluren treatment; settings: skin fibroblasts of neurofibromatosis patients (NF1 stop codon mutation) with increased Ras activity compared to normal individuals; Ataluren 20 μg/ml and 30 μg/ml (FIG. 3: 30 μg/ml); EGF 100 ng/ml
Protocol: The skin fibroblasts from donated normal individuals and neurofibromatosis patients were cultured in a DMEM supplemented with 10% FBS and 1% penicillin-streptomycin. When the cells were cultured until the density reached 70% to 80% of a container, the medium was replaced with an FBS-free medium, and the cells were cultured and subjected to a starvation process for 24 hours. Next, the cells were transferred to an FBS-containing medium, treated with epidermal growth factor (EGF), which is a Ras activator, by dilution to a concentration of 100 ng/ml, and then allowed for a reaction at 37° C. for 5 minutes to prepare each sample. To analyze the activity of the RAS proteins, a G-LISA Ras activation assay biochem Kit of Cytoskeleton Company (Absorbance Based) (Cytoskeleton, Cat No. BK131), which enables the measurement of a small number of cells and a large number of cells at the same time by compensating for the disadvantages of the pull-down assay, was used.
Briefly, in a method of analyzing the activity of the RAS proteins, cells were lysed by using a cell lysis solution included in the kit after treatment with EGF, only the supernatant was obtained, and the proteins contained in the supernatant were quantified. […] Next, an HRP detection reagent was added and a reaction was allowed for 15 minutes at room temperature to measure the absorbance at 490 nm. […]

[3] = fibroblasts of normal individuals

SMILES: O=C(O)c1cccc(-c2noc(-c3ccccc3F)n2)c1 [Ataluren, 3-[5-(2-fluoro-phenyl)-[1,2,4]oxadiazol-3-yl]-benzoic acid]
- expression of p-ERK [1]: decreased
- expression of p-ERK ([1]; listed as ataluren): significantly decreased
- expression of phosphorylated ERK (p-ERK) [1, 3]: no change
- expression of p-ERK (expression ratios of ERK and p-ERK) (p-ERK protein; fibroblasts of neurofibromatosis patients in which the activity of Ras proteins has been decreased): decreased
- expression level of p-ERK protein (expression ratios of ERK and p-ERK) (p-ERK protein; [3]): slightly increased
- signal of Ras-GTP (activity of Ras proteins) [2]: significantly decreased
